“And” between values parts separate entries of the source, which are not always exact repeats. Identical values can stand only once.
Legend:
[1] = tested on: cynomolgus monkeys; experiment: Monkey spontaneous eye blink rate (EBR); assay type: in vivo, Macaca fasicularis; settings: cynomolgus monkey; for EBR response on repeated daily dosing (3 days): n = 3, A-77636 s.c., PF-2334 oral 0.6 + 0.3 mg/kg
Experimental: Increase in spontaneous EBR has been previously shown with D1 agonists and partial agonists. To confirm the specificity of the response in our particular assay set up for D1 activation, we verified that the D1 receptor antagonist SCH-39166 fully blocks the increased eye blink response of non-catechol full D1 agonist that is a close structural analog of the compounds in this paper (data not shown). All procedures involving animals were conducted with approval of the Pfizer Institutional Animal Care and Use Committee (Groton, CT) and compliant with the regulations and standards of the Animal Welfare Act (9CFR2, 9CFR3). Three male Cynomolgus macaques (Macaca fasicularis) of Mauritian origin, 7–10 years old, SPF for CHV-1, SIV, STLV1 and SRV 1, 2, 5 were used. Animals were exposed to 12 h light/dark cycle (lights on 6:00 AM – 6:00 PM). […] EBRS were recorded from chaired animals for 2 min at 10 min intervals by a trained observer through direct visual observation who was blinded to experimental conditions. Animals were chaired at approximately 7:30 AM. After vehicle or compound administration, eye blinks were recorded during the following intervals: from 10 to 50 min (0–1 h), 130 to 170 min (2–3 h), 310 to 350 min (5–6 h). Animals were returned to their home cages between two consecutive sessions and after the final recording of the day. Blood samples (1 ml) were collected from the femoral vein at 1 and 5 h after the first dose to quantitate plasma compound levels. […] A77636 was dissolved in 0.9% sterile saline, formulated fresh prior to administration, and given once per day for 3 days. […] Vehicle control was administered on day 0.
EBR data were first converted to blinks per minute. EBR were averaged by binning into 3 periods: Period 1 (0–1 h after the first dose) EBR = mean of 10, 20, 30, 40, and 50 min recordings; Period 2 (2–3 h after the first dose) EBR = mean of 130, 140, 150, 160, and 170 min recordings; Period 3 (5–6 h after the first dose) EBR = mean of 310, 320, 330, 340, and 350 min recordings. For Fig. 5c EBR data were averaged by binning data from periods 1 through 3 as daily EBR. Data from each animal was then normalized to their respective Day 1 EBR and expressed as percent of Day 1 EBR for each drug. EBR data were analyzed with SAS® 9.4 (SAS Institute Inc. Cary, NC) using a mixed linear model (Mixed Procedure) for repeated measures. The model included treatment, day, time period, and their interactions as fixed effects, and animal and animal-by-day interaction as random effects. A first order autoregressive model was used for longitudinal covariance structure. Differences between least squares means across days, overall and for each time period, were tested and adjusted for multiple comparisons via Tukey method. […]

[2] = Equilibrium dialysis, unbound fraction in monkey plasma; assay type: in vitro ADME; settings: read-out: unbound fraction in monkey plasma (fu,p)
[3] = Plasma concentrations in monkey EBR study; assay type: in vivo, cynomolgus monkey; settings: mean ± SD
Experimental: For both compounds, blood collections occurred on day 1, day 2, and day 3. All blood samples were placed on wet ice until centrifugation. Following centrifugation, the plasma was transferred to polypropylene tubes and stored frozen at –20 °C to –80 °C until analysis.

[4] = Equilibrium dialysis, unbound fraction in rat brain homogenate; assay type: in vitro ADME; settings: read-out: unbound fraction in rat brain homogenate (fu,b)
[5] = tested on: human D1R S107A mutant; experiment: cAMP assay, D1R mutant S107A; settings: relative to wild-type D1R; each table line is one experiment (Experiment # 1-6)
[6] = tested on: human D1R T273A mutant; experiment: cAMP assay, D1R mutant T273A; settings: relative to wild-type D1R; each table line is one experiment (Experiment # 1-6)
[7] = tested on: human D1R I117A mutant; experiment: cAMP assay, D1R mutant I117A; settings: relative to wild-type D1R; each table line is one experiment (Experiment # 1-6)
[8] = tested on: human D1R N334A mutant; experiment: cAMP assay, D1R mutant N334A; settings: relative to wild-type D1R; each table line is one experiment (Experiment # 1-6)
[9] = tested on: human D1R T59A mutant; experiment: cAMP assay, D1R mutant T59A; settings: relative to wild-type D1R; each table line is one experiment (Experiment # 1-6)
[10] = tested on: human D1R S199A mutant; experiment: cAMP assay, D1R mutant S199A; settings: relative to wild-type D1R; each table line is one experiment (Experiment # 1-6)
[11] = tested on: human D1R W321A mutant; experiment: cAMP assay, D1R mutant W321A; settings: relative to wild-type D1R; each table line is one experiment (Experiment # 1-6)
[12] = tested on: human D1R F288A mutant; experiment: cAMP assay, D1R mutant F288A; settings: relative to wild-type D1R; each table line is one experiment (Experiment # 1-6)
[13] = tested on: human D1R N292A mutant; experiment: cAMP assay, D1R mutant N292A; settings: relative to wild-type D1R; each table line is one experiment (Experiment # 1-6)
[14] = tested on: human D1R Y194F mutant; experiment: cAMP assay, D1R mutant Y194F; settings: relative to wild-type D1R; each table line is one experiment (Experiment # 1-6)
[15] = tested on: human D1R S198A mutant; experiment: cAMP assay, D1R mutant S198A; settings: relative to wild-type D1R; each table line is one experiment (Experiment # 1-6)
[16] = 0.9 mg/kg/day split oral dose, Day 1, 5 h post-dose
[17] = 0.9 mg/kg/day split oral dose, Day 2, 1 h post-dose
[18] = 0.9 mg/kg/day split oral dose, Day 2, 5 h post-dose
[19] = 0.9 mg/kg/day split oral dose, Day 3, 1 h post-dose
[20] = 0.9 mg/kg/day split oral dose, Day 3, 5 h post-dose
[21] = 1 mg/kg/day subcutaneous dose, Day 1, 1 h post-dose
[22] = 1 mg/kg/day subcutaneous dose, Day 1, 6 h post-dose
[23] = 1 mg/kg/day subcutaneous dose, Day 2, 1 h post-dose
[24] = 1 mg/kg/day subcutaneous dose, Day 2, 6 h post-dose
[25] = 1 mg/kg/day subcutaneous dose, Day 3, 1 h post-dose
[26] = 1 mg/kg/day subcutaneous dose, Day 3, 6 h post-dose

For `Cc1n[nH]c(=O)c(C)c1-c1ccc(Oc2nccc3occc23)cc1F` [PF-2334], the “EBR response on repeated daily dosing (3 days)” value [1] was “sustained after multiple days of dosing”, the fraction unbound [2] was 0.04 and the “Cp (total plasma concentration)” value ([3]; 0.9 mg/kg/day split oral dose (0.6 + 0.3 mg/kg 8 h later), Day 1, 1 h post-dose) was 41.9 ± 9.4 ng/mL. The “Cp,u (unbound plasma concentration)” value ([3]; 0.9 mg/kg/day split oral dose, Day 1, 1 h post-dose) was 4.8 ± 1.1 nM, the “Cp (total plasma concentration)” value [3, 16] was 47.0 ± 13.9 ng/mL and the “Cp,u (unbound plasma concentration)” value [3, 16] was 5.4 ± 1.6 nM. The “Cp (total plasma concentration)” value [3, 17] was 71.4 ± 20.1 ng/mL, the “Cp,u (unbound plasma concentration)” value [3, 17] was 8.1 ± 2.3 nM and the “Cp (total plasma concentration)” value [3, 18] was 99.0 ± 36.3 ng/mL. For the same molecule, the “Cp,u (unbound plasma concentration)” value [3, 18] was 11.3 ± 4.1 nM, the “Cp (total plasma concentration)” value [3, 19] was 89.5 ± 49.4 ng/mL and the “Cp,u (unbound plasma concentration)” value [3, 19] was 10.2 ± 5.6 nM. For the same molecule, the “Cp (total plasma concentration)” value [3, 20] was 106 ± 40 ng/mL, the “Cp,u (unbound plasma concentration)” value [3, 20] was 12.1 ± 4.5 nM and the fraction unbound [4] was 0.021.

With `Cc1cc(Oc2cccc(O)c2O)ccc1-c1c(C)ncnc1C` [PF-1437] the “fold shift of cAMP functional potency, S107A (EC50 mutant/ EC50 WT)” value [5] was 1.2, the “fold shift of cAMP functional potency, T273A (EC50 mutant/ EC50 WT)” value [6] was 0.1 and the “fold shift of cAMP functional potency, I117A (EC50 mutant/ EC50 WT)” value [7] was 15.2. For the same molecule, the “fold shift of cAMP functional potency, N334A (EC50 mutant/ EC50 WT)” value [8] was 1.2 and the “fold shift of cAMP functional potency, T59A (EC50 mutant/ EC50 WT)” value [9] was 0.2.

With `Cc1cc(Oc2nccc3occc23)ccc1-c1c(C)ncnc1C` [PF-8871] the “fold shift of cAMP functional potency, S199A (EC50 mutant/ EC50 WT)” value [10] was 4.3, the “fold shift of cAMP functional potency, W321A (EC50 mutant/ EC50 WT)” value [11] was 21.4 and the “fold shift of cAMP functional potency, F288A (EC50 mutant/ EC50 WT)” value [12] was 146.3. For the same molecule, the “fold shift of cAMP functional potency, N292A (EC50 mutant/ EC50 WT)” value [13] was 30.7 and the “fold shift of cAMP functional potency, Y194F (EC50 mutant/ EC50 WT)” value [14] was 1.3.

With `Cc1cc(Oc2nccc3occc23)ccc1-c1c(C)ncc2nccn12` [PF-6142] the “fold shift of cAMP functional potency, S198A (EC50 mutant/ EC50 WT)” value [15] was 6.0 and 7.0 and 6.4 and 7.5, the “fold shift of cAMP functional potency, S199A (EC50 mutant/ EC50 WT)” value [10] was 8.7 and 10.0 and the “fold shift of cAMP functional potency, W321A (EC50 mutant/ EC50 WT)” value [11] was 22.7 and 21.1. For the same molecule, the “fold shift of cAMP functional potency, F288A (EC50 mutant/ EC50 WT)” value [12] was 141.2 and 88.7, the “fold shift of cAMP functional potency, S107A (EC50 mutant/ EC50 WT)” value [5] was 2.3 and the “fold shift of cAMP functional potency, T273A (EC50 mutant/ EC50 WT)” value [6] was 0.2. For the same molecule, the “fold shift of cAMP functional potency, N292A (EC50 mutant/ EC50 WT)” value [13] was 23.7 and 30.6, the “fold shift of cAMP functional potency, I117A (EC50 mutant/ EC50 WT)” value [7] was 9.8 and the “fold shift of cAMP functional potency, N334A (EC50 mutant/ EC50 WT)” value [8] was 1.3. For the same molecule, the “fold shift of cAMP functional potency, T59A (EC50 mutant/ EC50 WT)” value [9] was 1.0.

For `NC[C@@H]1O[C@H](C23CC4CC(CC(C4)C2)C3)Cc2c1ccc(O)c2O` [A-77636, reference compound], the “EBR response on repeated daily dosing (3 days)” value [1] was “progressively and significantly attenuated with each dosing day”, the “increase of spontaneous EBR over baseline after single dose” value ([1]; A-77636 s.c. (0.1 mg/kg as printed elsewhere in the source), PF-2334 oral 0.6 mg/kg + 0.3 mg/kg 8 h later) was 2–3 fold and the fraction unbound [2] was 0.044. For the same molecule, the “Cp (total plasma concentration)” value [3, 21] was 79.3 ± 11.4 ng/mL, the “Cp,u (unbound plasma concentration)” value [3, 21] was 10.6 ± 1.5 nM and the “Cp (total plasma concentration)” value [3, 22] was 34.8 ± 3.5 ng/mL. The “Cp,u (unbound plasma concentration)” value [3, 22] was 4.6 ± 0.5 nM, the “Cp (total plasma concentration)” value [3, 23] was 73.1 ± 13.8 ng/mL and the “Cp,u (unbound plasma concentration)” value [3, 23] was 9.8 ± 1.8 nM. The “Cp (total plasma concentration)” value [3, 24] was 46.3 ± 11.7 ng/mL, the “Cp,u (unbound plasma concentration)” value [3, 24] was 6.2 ± 1.6 nM and the “Cp (total plasma concentration)” value [3, 25] was 85.5 ± 19.0 ng/mL. The “Cp,u (unbound plasma concentration)” value [3, 25] was 11.4 ± 2.5 nM, the “Cp (total plasma concentration)” value [3, 26] was 40.6 ± 2.8 ng/mL and the “Cp,u (unbound plasma concentration)” value [3, 26] was 5.4 ± 0.4 nM. The fraction unbound [4] was 0.0012.
